Patent US20150289513A1, “USE OF A COMPOUND COMPRISING A POLYFLUOROBENZYL MOIETY AGAINST INSECTICIDE-RESISTANT PESTS” (priority 2012, published 2015)

Assays:
Assay type in all cases: in vivo
[1] = system: Anopheles gambiae (target-site-resistant strain: VK7); assay: Glazed tile contact test, knock-down
Description: (§1) To produce a suitable preparation Transfluthrin was dissolved in acetone. The active compound solution was pipetted onto a glazed tile and, after drying, adult mosquitoes of the species: • Anopheles gambiae (target-site-resistant and metabolic-resistant strain: RSPH), • Anopheles gambiae (target-site-resitant and metabolic-resistant strain: Tiassalé), • Anopheles gambiae (tar et-site-resitant and metabolic-resistant strain: Akron), • Anopheles gambiae (target-site-resistant strain: VK7), and • Anopheles funestus (metabolic-resistant strain FUMOZ-R) were placed onto the treated tile (each strain was tested on separate tiles). The exposition time was 30 minutes.
(§2) 0.25 hours, 0.5 hours, 1 hour, 2 hour, 3 hour, 4 hour and 24 hours after contact to the treated surface, the knock-down proportion of the test animals in % was determined. Here, 100% (effect) means that all mosquitoes have been killed; 0% (effect) means that none of the mosquitoes have been killed.

[2] = system: Anopheles gambiae (strain: Akron); assay: Glazed tile contact test, knock-down
Description: as §1, §2

[3] = system: Aedes aegypti (target-site-resistant strain: Grand Cayman); assay: Glazed tile contact test, knock-down
Description: To produce a suitable preparation Transfluthrin was dissolved in acetone. The active compound solution was pipetted onto a glazed tile and, after drying, adult mosquitoes of the species Aedes aegypti (target-site-resistant strain: Grand Cayman) were placed onto the treated tile. The exposition time was 30 minutes.
as §2

[4] = system: Cimex Lectularius, strain Cincinnati (CIN-1); assay: Spray test on bed bugs on glazed tile; details: for Amount of animals that are knocked down/killed: 10 bed bugs
Description: To produce a suitable preparation Transfluthrin was dissolved in acetone in various concentrations (0.1 mg Transfluthrin/ml; 0.01 mg Transfluthrin/ml and 0.001 mg Transfluthrin/ml). Efficacy tests were done by placing 10 bed bug test animals (Cimex Lectularius, strain Cincinnati (CIN-1)) onto a glazed tile. The prepared solutions in various concentractions were sprayed with a glass nozzle onto the bed bugs on the glazed tile. After spraying the bed bugs were transferred to plastic cups. 5 minutes, 10 minutes, 15 minutes, 20 minutes, 0.5 hour, 1 hour, 2 hour, 4 hour and 24 hours after the treatment, the knock-down proportion of the test animals was determined.

[5] = 0.064 g/ha, 0.25 h after contact
[6] = 0.064 g/ha, 0.5 h after contact
[7] = 0.32 g/ha, 0.25 h after contact

Compound CC1(C)[C@H](C=C(Cl)Cl)[C@H]1C(=O)OCc1c(F)c(F)cc(F)c1F [Transfluthrin, (1R,3S)-3-(2,2-Dichlorovinyl)-2,2-dimethyl-1-cyclopropanecarboxylic acid (2,3,5,6-tetrafluorophenyl)methyl ester] has an Effect % [1, 5] of 5%, an Effect % [1, 6] of 5% and an Effect % ([1]; 0.064 g/ha, 1 h after contact) of 5%. For the same compound, the Effect % ([1]; 0.064 g/ha, 2 h after contact) was 15%, the Effect % ([1]; 0.064 g/ha, 3 h after contact) was 15% and the Effect % ([1]; 0.064 g/ha, 4 h after contact) was 15%. For the same compound, the Effect % ([1]; 0.064 g/ha, 24 h after contact) was 25%, the Effect % [1, 7] was 25% and the Effect % ([1]; 0.32 g/ha, 0.5 h after contact) was 35%. For the same compound, the Effect % ([1]; 0.32 g/ha, 1 h after contact) was 20%, the Effect % ([1]; 0.32 g/ha, 2 h after contact) was 20% and the Effect % ([1]; 0.32 g/ha, 3 h after contact) was 20%. The Effect % ([1]; 0.32 g/ha, 4 h after contact) was 25%, the Effect % ([1]; 0.32 g/ha, 24 h after contact) was 30% and the Effect % ([1]; 1.6 g/ha, 0.25 h after contact) was 80%. It also gave an Effect % ([1]; 1.6 g/ha, 0.5 h after contact) of 90%, an Effect % ([1]; 1.6 g/ha, 1 h after contact) of 85% and an Effect % ([1]; 1.6 g/ha, 2 h after contact) of 80%. For the same compound, the Effect % ([1]; 1.6 g/ha, 3 h after contact) was 65%, the Effect % ([1]; 1.6 g/ha, 4 h after contact) was 85% and the Effect % ([1]; 1.6 g/ha, 24 h after contact) was 65%. For the same compound, the Effect % ([1]; 8 g/ha, 0.25 h after contact) was 100%, the Effect % ([1]; 8 g/ha, 0.5 h after contact) was 100% and the Effect % ([1]; 8 g/ha, 1 h after contact) was 100%. The Effect % ([1]; 8 g/ha, 2 h after contact) was 100%, the Effect % ([1]; 8 g/ha, 3 h after contact) was 100% and the Effect % ([1]; 8 g/ha, 4 h after contact) was 100%. For the same compound, the Effect % ([1]; 8 g/ha, 24 h after contact) was 100%, the Effect % ([1]; 40 g/ha, 0.25 h after contact) was 100% and the Effect % ([1]; 40 g/ha, 0.5 h after contact) was 100%. The Effect % ([1]; 40 g/ha, 1 h after contact) was 100%, the Effect % ([1]; 40 g/ha, 2 h after contact) was 100% and the Effect % ([1]; 40 g/ha, 3 h after contact) was 100%. The Effect % ([1]; 40 g/ha, 4 h after contact) was 100%, the Effect % ([1]; 40 g/ha, 24 h after contact) was 100% and the Effect % ([1]; 200 g/ha, 0.25 h after contact) was 100%. The Effect % ([1]; 200 g/ha, 0.5 h after contact) was 100%, the Effect % ([1]; 200 g/ha, 1 h after contact) was 100% and the Effect % ([1]; 200 g/ha, 2 h after contact) was 100%. For the same compound, the Effect % ([1]; 200 g/ha, 3 h after contact) was 100%, the Effect % ([1]; 200 g/ha, 4 h after contact) was 100% and the Effect % ([1]; 200 g/ha, 24 h after contact) was 100%. For the same compound, the Effect % [2, 5] was 5%, the Effect % [2, 6] was 5% and the Effect % ([2]; 0.064 g/ha, 1 h after contact) was 10%. It also gave an Effect % ([2]; 0.064 g/ha, 2 h after contact) of 10%, an Effect % ([2]; 0.064 g/ha, 3 h after contact) of 5% and an Effect % ([2]; 0.064 g/ha, 4 h after contact) of 5%. The Effect % ([2]; 0.064 g/ha, 24 h after contact) was 15%, the Effect % [2, 7] was 5% and the Effect % ([2]; 0.32 g/ha, 0.5 h after contact) was 0%. It also gave an Effect % ([2]; 0.32 g/ha, 1 h after contact) of 5%, an Effect % ([2]; 0.32 g/ha, 2 h after contact) of 5% and an Effect % ([2]; 0.32 g/ha, 3 h after contact) of 10%. It also gave an Effect % ([2]; 0.32 g/ha, 4 h after contact) of 5%, an Effect % ([2]; 0.32 g/ha, 24 h after contact) of 10% and an Effect % ([2]; 200 g/ha, 0.25 h after contact) of 100%. The Effect % ([2]; 200 g/ha, 0.5 h after contact) was 100%, the Effect % [3, 5] was 5% and the Effect % [3, 6] was 0%. The Effect % ([3]; 0.064 g/ha, 1 h after contact) was 0%, the Effect % ([3]; 0.064 g/ha, 2 h after contact) was 0% and the Effect % ([3]; 0.064 g/ha, 3 h after contact) was 0%. The Effect % ([3]; 0.064 g/ha, 4 h after contact) was 0%, the Effect % ([3]; 0.064 g/ha, 24 h after contact) was 10% and the Effect % [3, 7] was 20%. The Effect % ([3]; 0.32 g/ha, 0.5 h after contact) was 25%, the Effect % ([3]; 0.32 g/ha, 1 h after contact) was 30% and the Effect % ([3]; 0.32 g/ha, 2 h after contact) was 20%. It also gave an Effect % ([3]; 0.32 g/ha, 3 h after contact) of 20%, an Effect % ([3]; 0.32 g/ha, 4 h after contact) of 25% and an Effect % ([3]; 0.32 g/ha, 24 h after contact) of 20%. The Effect % ([3]; 1.6 g/ha, 0.25 h after contact) was 70%, the Effect % ([3]; 1.6 g/ha, 0.5 h after contact) was 60% and the Effect % ([3]; 1.6 g/ha, 1 h after contact) was 70%. The Effect % ([3]; 1.6 g/ha, 2 h after contact) was 70%, the Effect % ([3]; 1.6 g/ha, 3 h after contact) was 65% and the Effect % ([3]; 1.6 g/ha, 4 h after contact) was 60%. For the same compound, the Effect % ([3]; 1.6 g/ha, 24 h after contact) was 70%, the Effect % ([3]; 8 g/ha, 0.25 h after contact) was 90% and the Effect % ([3]; 8 g/ha, 0.5 h after contact) was 100%. For the same compound, the Effect % ([3]; 8 g/ha, 1 h after contact) was 100%, the Effect % ([3]; 8 g/ha, 2 h after contact) was 90% and the Effect % ([3]; 8 g/ha, 3 h after contact) was 100%. The Effect % ([3]; 8 g/ha, 4 h after contact) was 90%, the Effect % ([3]; 8 g/ha, 24 h after contact) was 90% and the Effect % ([3]; 40 g/ha, 0.25 h after contact) was 100%. It also gave an Effect % ([3]; 40 g/ha, 0.5 h after contact) of 100%, an Effect % ([3]; 40 g/ha, 1 h after contact) of 100% and an Effect % ([3]; 40 g/ha, 2 h after contact) of 100%. For the same compound, the Effect % ([3]; 40 g/ha, 3 h after contact) was 100%, the Effect % ([3]; 40 g/ha, 4 h after contact) was 100% and the Effect % ([3]; 40 g/ha, 24 h after contact) was 100%. It also gave an Effect % ([3]; 200 g/ha, 0.25 h after contact) of 100%, an Effect % ([3]; 200 g/ha, 0.5 h after contact) of 100% and an Effect % ([3]; 200 g/ha, 1 h after contact) of 100%. It also gave an Effect % ([3]; 200 g/ha, 2 h after contact) of 100%, an Effect % ([3]; 200 g/ha, 3 h after contact) of 100% and an Effect % ([3]; 200 g/ha, 4 h after contact) of 100%. The Effect % ([3]; 200 g/ha, 24 h after contact) was 100%, the “Amount of animals that are knocked down/killed” value ([4]; 0.001 mg Transfluthrin/ml Aceton, 10 min after spray) was 0 and the “Amount of animals that are knocked down/killed” value ([4]; 0.001 mg Transfluthrin/ml Aceton, 15 min after spray) was 0. The “Amount of animals that are knocked down/killed” value ([4]; 0.001 mg Transfluthrin/ml Aceton, 20 min after spray) was 0, the “Amount of animals that are knocked down/killed” value ([4]; 0.001 mg Transfluthrin/ml Aceton, 30 min after spray) was 0 and the “Amount of animals that are knocked down/killed” value ([4]; 0.001 mg Transfluthrin/ml Aceton, 60 min after spray) was 1. For the same compound, the “Amount of animals that are knocked down/killed” value ([4]; 0.001 mg Transfluthrin/ml Aceton, 120 min after spray) was 1, the “Amount of animals that are knocked down/killed” value ([4]; 0.001 mg Transfluthrin/ml Aceton, 240 min after spray) was 0 and the “Amount of animals that are knocked down/killed” value ([4]; 0.001 mg Transfluthrin/ml Aceton, 1440 min after spray) was 3. The “Amount of animals that are knocked down/killed” value ([4]; 0.01 mg Transfluthrin/ml Aceton, 10 min after spray) was 6, the “Amount of animals that are knocked down/killed” value ([4]; 0.01 mg Transfluthrin/ml Aceton, 15 min after spray) was 9 and the “Amount of animals that are knocked down/killed” value ([4]; 0.01 mg Transfluthrin/ml Aceton, 20 min after spray) was 10. For the same compound, the “Amount of animals that are knocked down/killed” value ([4]; 0.01 mg Transfluthrin/ml Aceton, 30 min after spray) was 10, the “Amount of animals that are knocked down/killed” value ([4]; 0.01 mg Transfluthrin/ml Aceton, 60 min after spray) was 10 and the “Amount of animals that are knocked down/killed” value ([4]; 0.01 mg Transfluthrin/ml Aceton, 120 min after spray) was 10. The “Amount of animals that are knocked down/killed” value ([4]; 0.01 mg Transfluthrin/ml Aceton, 240 min after spray) was 10, the “Amount of animals that are knocked down/killed” value ([4]; 0.01 mg Transfluthrin/ml Aceton, 1440 min after spray) was 7 and the “Amount of animals that are knocked down/killed” value ([4]; 0.1 mg Transfluthrin/ml Aceton, 10 min after spray) was 9. For the same compound, the “Amount of animals that are knocked down/killed” value ([4]; 0.1 mg Transfluthrin/ml Aceton, 15 min after spray) was 10, the “Amount of animals that are knocked down/killed” value ([4]; 0.1 mg Transfluthrin/ml Aceton, 20 min after spray) was 10 and the “Amount of animals that are knocked down/killed” value ([4]; 0.1 mg Transfluthrin/ml Aceton, 30 min after spray) was 10. For the same compound, the “Amount of animals that are knocked down/killed” value ([4]; 0.1 mg Transfluthrin/ml Aceton, 60 min after spray) was 10, the “Amount of animals that are knocked down/killed” value ([4]; 0.1 mg Transfluthrin/ml Aceton, 120 min after spray) was 10 and the “Amount of animals that are knocked down/killed” value ([4]; 0.1 mg Transfluthrin/ml Aceton, 240 min after spray) was 10. For the same compound, the “Amount of animals that are knocked down/killed” value ([4]; 0.1 mg Transfluthrin/ml Aceton, 1440 min after spray) was 9 and the “Efficiency against insecticide-resistant bed bug strain” value ([4]; in vivo) was “efficient”.
